Measurements published in ChEMBL document CHEMBL1201862, “PubChem BioAssay data set” (2004).
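Interpolation was linear, between the two tested concentrations surrounding the appropriate level; five concentrations were tested over 48 hours in 96-well plates. GI50 = concentration required for 50% inhibition of growth.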 Calls of active or inactive are those of the source. Cut-off read from the data, not from the text of the source: active = GI50 up to about 1.1 µM and inactive = higher.

What was measured:
Test in all cases: growth of human tumour cells (NCI), 48 h
[1] = system: A498
[2] = system: DLD-1
[3] = system: DMS-114
[4] = system: DMS-273
[5] = system: HCC 2998
[6] = system: HOP-18
[7] = system: KM-20L2
[8] = system: M19-MEL
[9] = system: MCF7
[10] = system: NCI/ADR-RES
[11] = system: RPMI-8226
[12] = system: SNB-78
[13] = system: SW-620
[14] = system: XF498

Measured: GI50

C=C1C(=O)OC2CC(C)C3C4OC4C(O)C3(C)C(O)C12 (stereo not drawn)
inactive: [1] 16 µM | [2] 27.3 µM | [3] 12.5 µM | [4] 18.4 µM | [5] 30.8 µM | [6] 24.4 µM | [7] 14.1 µM | [8] 21.1 µM | [9] 20.7 µM | [10] 20.7 µM | [11] 13.7 µM | [12] 13.5 µM | [13] 16.5 µM | [14] 22.2 µM

CCC/C=C/C=C\C(=O)O[C@@H]1[C@@H](C)[C@]2(O)[C@@H]3C=C(C)C(=O)[C@H]3CC(COC(C)=O)=C[C@H]2[C@@H]2C(C)(C)[C@]12OC(C)=O
inactive: [1] 1.99 µM | [2] 16.7 µM | [3] 45.1 µM | [4] 22.6 µM | [5] 14.8 µM | [6] 28 µM | [7] 44.4 µM | [8] 32.2 µM | [9] 37.8 µM | [10] 50.7 µM | [11] 22.9 µM | [12] 44.9 µM | [13] 11.2 µM | [14] 7.29 µM
